How the values were obtained:
Test in all cases: Cell viability assay (ATPlite)
Format in all cases: cell-based
11-18 = conditions: Homo sapiens; 11-18 cell line, 72 hours incubation
Summary of the method: (§1)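 Cells grew 24 h, then received 9-point √10-fold compound series in duplicate (0.4% DMSO final) for 72 h. ATP content was read by ATPlite luminescence and normalized to vehicle controls as % viability. IC50 came from a four-parameter logistic fit; curves with F-value above 1.5 were invalidated, with IC50 then set at the top concentration.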

A-172 = conditions: Homo sapiens; A-172 cell line, 72 hours incubation
Summary of the method: as §1

Jurkat E6.1 = conditions: Homo sapiens; Jurkat E6.1 cell line, 72 hours incubation
Summary of the method: as §1

NCI-H2452 = conditions: Homo sapiens; NCI-H2452 cell line, 72 hours incubation
Summary of the method: as §1

SW900 = conditions: Homo sapiens; SW900 cell line, 72 hours incubation
Summary of the method: as §1

T98G = conditions: Homo sapiens; T98G cell line, 72 hours incubation
Summary of the method: as §1

VA-ES-BJ = conditions: Homo sapiens; VA-ES-BJ cell line, 72 hours incubation
Summary of the method: as §1

O=C(c1ccc(Oc2ccccc2)cc1Cl)c1c[nH]c2ncnc(N[C@@H]3CC[C@@H](CO)OC3)c12 [nemtabrutinib]
IC50 (11-18): 2.62 µM
IC50 (A-172): 10.6 µM
IC50 (Jurkat E6.1): 0.267 µM
IC50 (NCI-H2452): 5.46 µM
IC50 (SW900): 2.29 µM
IC50 (T98G): 4.52 µM
IC50 (VA-ES-BJ): 7.98 µM
